Results: paper PMC9927457 (Microbiology Spectrum, 2023)
≈ marks a conversion by molar mass, not a printed value. Read-outs that look alike come from different tables or passages of the source.

Legend:
[1] = tested on: M. tuberculosis strain under expressing LepB (LepB-UE); experiment: microbe, parasite or virus in culture; assay type: cell-based, Mycobacterium tuberculosis; conditions: for MIC: Mycobacterium tuberculosis, 120 h
[2] = molecular target: SPase activity in M. tuberculosis H37Rv cell membrane fractions (Mycobacterium tuberculosis, UniProt P9WKA1); experiment: Inhibition of secretion (SPase activity) in membrane fractions; assay type: biochemical; conditions: fluorogenic peptide substrate 2 μM; 4 h, 37 °C
Chain of SPase activity in M. tuberculosis H37Rv cell membrane fractions (P9WKA1 whole entry): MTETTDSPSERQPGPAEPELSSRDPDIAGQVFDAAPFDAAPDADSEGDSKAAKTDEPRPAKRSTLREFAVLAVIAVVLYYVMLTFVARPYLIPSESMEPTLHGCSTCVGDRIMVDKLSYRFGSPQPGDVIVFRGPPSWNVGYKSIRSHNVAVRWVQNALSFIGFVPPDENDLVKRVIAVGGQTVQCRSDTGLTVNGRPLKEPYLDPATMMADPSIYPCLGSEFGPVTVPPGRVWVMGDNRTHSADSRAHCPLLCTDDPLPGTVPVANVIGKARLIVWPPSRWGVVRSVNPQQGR

[3] = tested on: HepG2 cells; experiment: HepG2 cytotoxicity; assay type: cell-based, human; conditions: 3 days exposure, CellTiter-Glo
Procedure: HepG2 cells were used to measure eukaryotic cytotoxicity. Viability of HepG2 was measured using CellTiter-Glo reagent (Promega) after 3 days of exposure to compounds. […] Staurosporine controls (maximum inhibition) and a staurosporine dose response were included on every plate.

[4] = tested on: M. tuberculosis wild-type strain; experiment: MIC against wild-type M. tuberculosis; assay type: cell-based, Mycobacterium tuberculosis; conditions: for MIC: Mycobacterium tuberculosis, 120 h, read-out: MIC Wild type
[5] = tested on: RAW 264.7 macrophages; experiment: Cytotoxicity against infected macrophages; assay type: cell-based, murine; conditions: Mus musculus; infected RAW264:7 cells, 72 h; read-out: IC50 Macrophage
Procedure: Murine RAW 264.7 macrophages (ATCC TIB-71) were infected with M. tuberculosis DsRed (DREAM8) ([29]) as described at a multiplicity of infection of 1 for 24 h, washed, harvested, and dispensed into 384-well plates ([30]). Infected macrophages were exposed to compounds for 72 h; cell nuclei were stained with SYBR green I. Plates were imaged with an ImageXpress Micro High Content Screening System (Molecular Devices) using a ×4 objective and FITC and Texas Red channels. MetaXpress was used to determine the integrated intensity of bacteria or macrophages. […] Isoniazid and staurosporine controls (maximum inhibition) and dose responses were included on every plate.

[6] = Plasma protein binding (Rapid Equilibrium Dialysis); assay type: in vitro ADME, human; conditions: for fraction unbound: 5 µM, dialysed against PBS 4 h at 37C
Procedure: Molecule fraction fraction Post-Assay
Table S5. Plasma protein binding
Protein binding was measured in human plasma using Rapid Equilibrium Dialysis (RED) devices (Pierce) according to the manufacturers’ instructions; 5 µM compounds in plasma were dialysed against PBS for 4 h at 37C. Compounds were detected by LC-MS/MS in plasma and PBS

[7] = concentration required to inhibit growth by 90%, 5 days culture

| Compound | MIC [1] | IC50 [2] | IC50 ([3]; Homo sapiens, HepG2, 72 h) | MIC [4, 7] | MIC LepB-UE [1] | other results |
| --- | --- | --- | --- | --- | --- | --- |
| CCCCNC(=S)Nc1nc(C)cs1 [Molecule 16, 1-butyl-3-(4-methylthiazol-2-yl)thiourea] | 85 ± 17 µM (≈ 19.5 µg/mL) | > 200 µM | > 100 µM | 59 ± 1 µM (≈ 13.5 µg/mL) | – | – |
| CCCCNC(=S)Nc1nc(C)c(C)s1 [Molecule 17, 1-butyl-3-(4,5-dimethylthiazol-2-yl)thiourea] | 112 ± 25 µM (≈ 27.3 µg/mL) | – | > 100 µM | > 200 µM | – | – |
| CCCCNC(=S)Nc1nc(C)c[nH]1 [Molecule 18, 1-butyl-3-(4-methyl-1H-imidazol-2-yl)thiourea] | 51 µM (≈ 10.8 µg/mL) | – | 61 ± 4 µM | 44 µM (≈ 9.34 µg/mL) | 51 ± 1.0 µM (≈ 10.8 µg/mL) | MIC Wild type [4, 7]: 44 ± 8.0 µM (≈ 9.34 µg/mL) |
| CCCCNC(=S)Nc1ccnn1C [Molecule 19, 1-butyl-3-(1-methyl-1H-pyrazol-5-yl)thiourea] | > 200 µM | > 200 µM | > 100 µM | > 200 µM | – | – |
| CCCCNC(=S)Nc1nccc(C)n1 [Molecule 20, 1-butyl-3-(4-methylpyrimidin-2-yl)thiourea] | > 200 µM | – | > 100 µM | > 200 µM | – | – |
| CCCCNC(=S)Nc1ncc(C)o1 [Molecule 22, 1-butyl-3-(5-methyloxazol-2-yl)thiourea] | 8 to 9 µM (≈ 1.71 to 1.92 µg/mL) | – | 32 ± 19 µM | 10 µM (≈ 2.13 µg/mL) | 9.1 ± 0.4 µM (≈ 1.94 µg/mL) | IC50 [5]: 7.1 ± 1.5 µM; MIC Wild type [4, 7]: 10 ± 12 µM (≈ 2.13 µg/mL) |
| CCCCNC(=S)Nc1nc(-c2ccccc2)co1 [Molecule 23, 1-butyl-3-(4-phenyloxazol-2-yl)thiourea] | 10 to 11 µM (≈ 2.75 to 3.03 µg/mL) | > 200 µM | 32 ± 4 µM | 10 to 11 µM (≈ 2.75 to 3.03 µg/mL) | 10 ± 2.0 µM (≈ 2.75 µg/mL) | IC50 [5]: 30 ± 6.4 µM; MIC Wild type [4, 7]: 11 ± 4.0 µM (≈ 3.03 µg/mL) |
| CCCCSC(=S)Nc1nc2ccccc2s1 [Molecule 25, butyl benzo[d]thiazol-2-ylcarbamodithioate] | 101 ± 27 µM (≈ 28.5 µg/mL) | – | 29 ± 1 µM | 90 ± 20 µM (≈ 25.4 µg/mL) | – | – |
| S=C(NCCc1ccccc1)Nc1nc2ccccc2s1 [Molecule 26, 1-(benzo[d]thiazol-2-yl)-3-phenethylthiourea] | 8 ± 3 µM (≈ 2.51 µg/mL) | > 200 µM | 8 ± 6 µM | > 200 µM | – | IC50 [5]: 1.4 ± 0.2 µM; fraction unbound at 4 h, 5 µM ([6]; human, plasma, Mean plasma fraction Bound): 0.055 |
| CCCCN(C)C(=S)Nc1nc2ccccc2s1 [Molecule 27, 3-(benzo[d]thiazol-2-yl)-1-butyl-1-methylthiourea] | 155 to 195 µM (≈ 43.3 to 54.5 µg/mL) | > 200 µM | 5.6 µM | 195 ± 7 µM (≈ 54.5 µg/mL) | 155 ± 36 µM (≈ 43.3 µg/mL) | IC50 [3]: 6 ± 5 µM; MIC [4]: 155 to 195 µM (≈ 43.3 to 54.5 µg/mL) |
| CC(C)CNC(=S)Nc1nc2ccccc2s1 [Molecule 28, 1-(benzo[d]thiazol-2-yl)-3-isobutylthiourea] | 12 to 21 µM (≈ 3.18 to 5.57 µg/mL) | – | – | – | 21 ± 11 µM (≈ 5.57 µg/mL) | – |
| CCCCNC(=S)Nc1ccc2scnc2c1 [Molecule 30, 1-(benzo[d]thiazol-5-yl)-3-butylthiourea] | 49 ± 15 µM (≈ 13 µg/mL) | – | > 100 µM | 73 ± 12 µM (≈ 19.4 µg/mL) | – | – |
| CCCCNC(=S)Nc1nc2cc(Cl)ccc2o1 [Molecule 32, 1-butyl-3-(5-chlorobenzo[d]oxazol-2-yl) thiourea] | 68 ± 3 µM (≈ 19.3 µg/mL) | – | 9 ± 3 µM | 84 ± 13 µM (≈ 23.8 µg/mL) | – | – |
| CCCCNC(=S)Nc1nc2ccc(Cl)cc2o1 [Molecule 33, 1-butyl-3-(6-chlorobenzo[d]oxazol-2-yl)thiourea] | 49 ± 6 µM (≈ 13.9 µg/mL) | > 200 µM | 32 ± 3 µM | > 200 µM | – | – |
| CCCCNC(=S)Nc1nc2cccc(Cl)c2o1 [Molecule 34, 1-butyl-3-(7-chlorobenzo[d]oxazol-2-yl)thiourea] | 53 ± 1 µM (≈ 15 µg/mL) | – | 13 ± 3 µM | > 200 µM | – | IC50 [5]: 5.8 ± 0.4 µM |
| CC(=O)CC(c1ccccc1)c1c(O)c2ccccc2oc1=O (stereo not shown) [Warfarin, reference compound] | – | – | – | – | – | recovery at 4 h, 5 µM ([6]; human plasma, RED device, read-out: Post-Assay Recovery): 88.6%; fraction unbound ([6]; human, plasma, human plasma, read-out: Mean plasma fraction Bound (converted)): 0.007; fraction unbound ([6]; human, plasma, human plasma, read-out: Mean plasma fraction Unbound Fuplasma): 0.0067 |
